Test results taken from US20220274947A1, “NOVEL HETEROARYL-TRIAZOLE COMPOUNDS AS PESTICIDES” (Bayer Aktiengesellschaft, priority 2019, published 2022).

Key:
Format in all cases: in vivo
Nilaparvata lugens = Nilaparvata lugens spray test; conditions: 96 h, rice plants, after 4 days; for mortality at 500 g/ha: application rate 500 g/ha; for mortality at 100 g/ha: application rate 100 g/ha
Method: Nilaparvata lugens—Spray Test Solvent: 78.0 parts by weight of acetone • • 1.5 parts by weight of dimethylformamide Emulsifier: alkylarylpolyglycol ether
(§1) To produce a suitable preparation of active compound, 1 part by weight of active compound is mixed with the stated amount of solvents and is diluted with water, containing an emulsifier concentration of 1000 ppm, to the desired concentration. Further test concentrations are prepared by dilution with emulsifier containing water.
Rice plants (Oryza sativa) are sprayed with a preparation of the active ingredient of the desired concentration and the plants are infested with the brown planthopper (Nilaparvata lugens).
After 4 days mortality in % is determined. 100% means all planthoppers have been killed and 0% means none of the planthoppers have been killed.

Tetranychus urticae = Tetranychus urticae spray test, OP-resistant; conditions: foliar, 144 h, application rate 100 g/ha, French bean leaf disks, after 6 days
Method: Tetranychus urticae—Spray Test OP-Resistant Solvent: 78.0 parts by weight acetone • 1.5 parts by weight dimethylformamide Emulsifier: alkylarylpolyglycol ether
as §1
French bean (Phaseolus vulgaris) leaf disks infected with all instars of the two spotted spidermite (Tetranychus urticae), are sprayed with a preparation of the active ingredient of the desired concentration.
After 6 days mortality in % is determined. 100% means all spider mites have been killed and 0% means none of the spider mites have been killed.

[1] = test system: Blattella germanica strain PAULINIA; test: Blattella germanica test (BLTTGE surface treatment & contact assay); conditions: exposure 30 minutes, 24 hours after contact, read-out: efficacy (mortality); for mortality at 20 mg/m2: surface concentration 20 mg/m^2, glazed tile; for mortality at 4 mg/m2: surface concentration 4 mg/m^2, glazed tile
Method: Blattella germanica Test (BLTTGE Surface Treatment & Contact Assay) Solvent: Aceton+2000 ppm rapeseed oil methyl ester (RME)
In order to produce a sufficient, active ingredient containing solution it is necessary to solve the test compound in the solvent-mix (acetone at 2 mg/ml/RME 2000 ppm). This solution is pipetted onto a glazed tile and after evaporation of the acetone, adult animals of the species Blattella germanica strain […] are placed onto the dried surface. The exposure time is 30 minutes. Mortality in percent (%) is determined 24 hours after contact of the insects to the treated surface. 100% mortality means that all tested insects are dead, whereas 0% means that no insect died.

Q: For `C[C@H](NC(=O)c1ccnc(C(F)(F)F)n1)c1ncnn1-c1ccc(C#N)cn1` [II-8], which mortality at 500 g/ha (Nilaparvata lugens) is on record?
A: 100%

Q: `C[C@H](NC(=O)c1cc(Cl)cc(C(F)F)c1)c1ncnn1-c1ccc(C#N)cn1` [II-12] was tested. Which mortality at 100 g/ha (Tetranychus urticae) did it give?
A: 90%

Q: Which mortality at 100 g/ha (Tetranychus urticae) does the source give for `C[C@H](NC(=O)c1cc(C(F)(F)F)cc(C(F)(F)F)c1)c1ncnn1-c1ccc(C(=O)N(C)C2CC2)cn1` [II-38, 6-(5-{(1S)-1-[3,5-bis(trifluoromethyl)benzamido]ethyl}-1H-1,2,4-triazol-1-yl)-N-cyclopropyl-N-methylnicotinamide] here?
A: 90%

Q: For `C[C@H](NC(=O)c1cc(Cl)cc(C(F)(F)F)c1)c1ncnn1-c1cc(-n2cncn2)ccn1` [II-43], which mortality at 500 g/ha (Nilaparvata lugens) is on record?
A: 90%

Q: Which mortality at 500 g/ha (Nilaparvata lugens) does the source give for `C[C@H](NC(=O)c1cc(C(F)(F)F)cc(C(F)(F)F)c1)c1ncnn1-c1ccc(C(=O)N(C)CC2CC2)cn1` [II-73] here?
A: 100%

Q: For `C[C@H](NC(=O)c1cc(OC(F)F)cc(OC(F)F)c1)c1ncnn1-c1ccc(C#N)cn1` [II-77], which mortality at 20 mg/m2 [1] is on record?
A: 80 to 100%

Q: `C[C@H](NC(=O)c1cc(Br)cc(C(F)F)c1)c1ncnn1-c1ccc(C#N)cn1` [II-83] was tested. Which mortality at 20 mg/m2 [1] did it give?
A: 80 to 100%

Q: `Cc1nc([C@H](C)NC(=O)c2cc(C(F)(F)F)cc(C(F)(F)F)c2)n(-c2ccc(C(=O)N(C)C3CC3)cn2)n1` [II-96] was tested. Which mortality at 100 g/ha (Nilaparvata lugens) did it give?
A: 90%

Q: Which mortality at 100 g/ha (Nilaparvata lugens) does the source give for `Cc1nc([C@H](C)NC(=O)c2cc(C(F)(F)F)cc(C(F)(F)F)c2)n(-c2ccc(C(=O)N(C)CC#N)cn2)n1` [II-99] here?
A: 90%

Q: And the mortality at 100 g/ha (Tetranychus urticae)?
A: 90%

Q: With `C[C@H](NC(=O)c1cc(C(F)F)cc(C(F)F)c1)c1ncnn1-c1ccc(C#N)cn1` [II-101] as the molecule, how does the mortality at 20 mg/m2 [1] read?
A: 80 to 100%

Q: Which mortality at 4 mg/m2 [1] does the source give for `C[C@H](NC(=O)c1cc(OC(F)(F)F)cc(C(F)F)c1)c1ncnn1-c1ccc(C#N)cn1` [II-111] here?
A: 80 to 100%

Q: And the mortality at 20 mg/m2 [1]?
A: 80 to 100%

Q: Which results are given for `C[C@H](NC(=O)c1cc(OC(F)F)cc(C(F)F)c1)c1ncnn1-c1ccc(C#N)cn1` [II-116]?
A: mortality at 4 mg/m2 [1]: 80 to 100%; mortality at 20 mg/m2 [1]: 80 to 100%
